Test results published in patent US9540647B2, “Methods and compositions for the treatment of cancer” (University of South Alabama, priority 2010, dated 2017).
Entries after “also recorded” stand apart in the source; their conditions may differ.

Tests used:
RAW264.7 cells [1] = test: Osteoclast differentiation (TRAP assay); type: cell-based, murine
Description: Cell lines—Human metastatic breast cancer cells, MDA-MB-231, were cultured in Dulbecco's Modified Eagle's Medium (DMEM/F12; Invitrogen, Carlsbad, Calif.), supplemented with 2 mM L-glutamine, 1 mM sodium pyruvate, 0.02 mM non-essential amino acids, 5% fetal bovine serum, FBS (Atlanta Biologicals, Norcross, Ga.), without antibiotics or antimycotics (cDME/F12). SUM1315 and SUM159 cells (DiMeo, T. A., et al. (2009) Cancer Res 69, 5364-5373) (Asterand, Detroit, Mich.) were cultured in DMEM/F12 supplemented with […], 5% FBS (Atlanta Biologicals) and either 10 ng/ml EGF or 1 ng/ml hydrocortisone, without antibiotics or antimycotics. The SUM1315 cells are derived from a metastasis in a patient with infiltrating ductal carcinoma; SUM159 cells were derived from a primary breast tumor with metaplastic carcinoma. RAW264.7 (ATCC, TIB 71) cells, a murine pre-osteoclastic line capable of differentiation and […] in culture (in presence of RANKL and MCSF), were grown in DMEM with L-glutamine (ATCC, 30-2002) supplemented with 10% FBS. A 2× differentiation medium (DM) was formulated for the RAW 264.7 cells comprising RAW264.7 growth medium supplemented with 20% FBS, RANKL (100 ng/ml) and M-CSF (40 ng/ml) (Matsubara, T., et al. J Bone Miner Res 25, 1068-1076). Conditioned media was harvested from breast cancer cells and mixed in a 1:1 ratio with double strength differentiation medium to assess the effect on osteoclast differentiation. 1×DM was used as control or wherever SHH (R & D Systems, Minneapolis, Minn.) or OPN (R & D Systems) was used alone. The medium on the RAW264.7 cells was replenished every 48 hours. In order to assess the effect of secreted Hh ligands, the neutralizing 5E1 antibody was used (Developmental Studies Hybridoma Bank, at the University of Iowa, Iowa). […] Medium was supplemented with 5E1 (2.5 μg/ml) and was changed on alternate days until the end of the experiment. The effect of OPN on osteoclast activity was assessed by transfecting an OPN shRNA-expressing construct on day 6 post-induction of differentiation. Fresh DM was added the following day and cells were allowed to grow for another 12 hours before termination of experiment. GLI1 expression was silenced in the SUM1315 cells using shRNA targeting GLI1 into pSuperior. gfp+neo (Oligoengine, WA, USA). Silencing of OPN expression was done using OPN-targeting shRNA cloned into pSuper (Oligoengine)
Osteoclast differentiation and activity assays—Tartarate-resistant acid phosphatase (TRAP) assay was conducted for RAW 264.7 following the manufacturer's protocol (Sigma, St. Louis, Mo.). This assay was indicative of the extent of differentiation. […] The percentage of area resorbed was calculated using the NIS-Elements BR. […]

OPN mRNA = test: OPN transcript levels by real-time RT-PCR in metastatic melanoma cell lines; type: cell-based, human; conditions: for levels of OPN mRNA: cyclopamine 24 h, qRT-PCR
Description: This medium was replaced with fresh cyclopamine-containing medium after 12 h. […] RNA was assessed by real-time RT-PCR for OPN transcript levels.
Stable vector only and non-targeting (scrambled control) transfectants were also generated. Stable transfectants were selected on medium supplemented with 500 μg/ml Geneticin (Invitrogen). The four GLI1-knocked down clones chosen were based on the extent of GLI1 knockdown and were termed KO1, KO2, KO3, and KO4. The expression of OPN was restored in the KO1 cells by transfecting with pcDNA3.1-OPN. A corresponding vector-only transfectant was also generated. Transfectants were selected on medium containing Geneticin (500 μg/ml) and hygromycin (750 μg/ml). Serum-free conditioned medium harvested from approximately 3.0×10^6 cells after 24 hr was assayed for OPN by immunoblotting.
Quantitative RT-PCR (qRT-PCR)—cDNA was generated using High Capacity Reverse Transcriptase Kit (Applied Biosystems, Foster City, Calif.). Real time PCR was performed using a Bio-Rad iQ5 Real-Time Detection system (Bio-Rad). All reactions were done as three independent replicates. All assays were done using the TaqMan Gene Expression Assays from Applied Biosystems. OPN (SPP1: Hs 00959010_m1) transcript levels were normalized to glyceraldehyde-3-phosphate dehydrogenase (Hs 99999905_m1) levels (δCT), which was used to calculate changes in OPN expression (2^−δδCT). […] GLI1 and SHH (Hs 00179843_m1) expressions were also similarly assessed with glyceraldehyde-3-phosphate dehydrogenase as an endogenous control. To analyze the knockdown effectiveness, “scrambled transfectants” of MDA-MB-435 was set as calibrator.

RAW264.7 cells [2] = test: Osteoclast resorption activity (OAAS plates); type: cell-based, murine
Description: Osteoclast differentiation and activity assays—Tartarate-resistant acid phosphatase (TRAP) assay was conducted for RAW 264.7 following the manufacturer's protocol (Sigma, St. Louis, Mo.). This assay was indicative of the extent of differentiation. OAAS plates (Osteogenic Core Technologies, Choongnam, Republic of Korea) were utilized to measure osteoclastic activity. RAW 264.7 cells (25×103) were inoculated in 48-well plates. Cells were treated with serum-free conditioned media from breast cancer cells or 100 nM SHH or 100 ng/ml OPN on the following day. Media was changed every two days and the experiments were terminated either on day 6 (day 7 for knockdown experiments, with transfections being done on the sixth day). At the completion, cells were detached with 5% sodium hypochlorite and the wells were observed under a Nikon Eclipse TS 100 microscope at 10× magnification. […] The percentage of area resorbed was calculated using the NIS-Elements BR. 3.1 software.

Compound: CC1=C2C[C@H]3[C@@H](CC=C4C[C@@H](O)CC[C@@]43C)[C@@H]2CC[C@]12O[C@@H]1C[C@H](C)CN[C@H]1[C@H]2C [cyclopamine]
- ability of tumor cells to induce osteoclast differentiation (RAW264.7 cells [1]; conditioned medium from MDA-MB-435 cells treated with cyclopamine): significant reduction
- ability of osteoclasts to differentiate (RAW264.7 cells [1]; cyclopamine (20 μM), DM and breast cancer cell-conditioned medium): significantly (*p<0.0001) compromises their ability to differentiate
- levels of OPN mRNA (OPN mRNA; MCC012A cells): decreases the levels of OPN mRNA
- levels of OPN mRNA (OPN mRNA; MCC012F cells): decreases the levels of OPN mRNA
- levels of OPN mRNA (OPN mRNA; MDA-MB-435 cells): decreases the levels of OPN mRNA in a dose-dependent manner
- ability of osteoclasts to resorb matrix (RAW264.7 cells [2]; cyclopamine (20 μM), stimulated with breast cancer conditioned medium): significantly (*p<0.0001) compromises their ability to resorb matrix

Compound: SHH: recombinant Sonic Hedgehog ligand (R & D Systems)
- numbers of multinucleate TRAP-positive cells (RAW264.7 cells [1]; DM supplemented with OPN (100 ng/ml) or SHH (100 nM) vs DM): potentiates differentiation; also recorded: stimulate osteoclast differentiation; also recorded: significantly (* indicates p<0.005) increases
- OPN transcript levels, rescue of cyclopamine inhibition (OPN mRNA; MDA-MB-435 cells, cyclopamine 20 μM, after 12 hr medium with recombinant SHH (100 nM)): able to rescue the inhibitory effects of cyclopamine
- resorption activity of differentiated osteoclasts (RAW264.7 cells [2]; DM with OPN (100 ng/ml) or SHH (100 nM)): significantly (* indicates p<0.001) increases the resorption activity
